In one assay the target is BACE1 (Homo sapiens, UniProt P56817). As to the kind of experiment: In vitro enzymatic BACE FRET assay. Format: biochemical. The following applies: average IC50; read-out: BACE1 Enzyme assay IC50. In outline: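 BACE (0.2 nM) pre-incubated 1 h with serially diluted inhibitor in 0.05 M acetate pH 4.2, 10% DMSO, 100 uM genapol; 50 nM FRET peptide substrate added, 1 h incubation. Stopped with Tris to neutral pH; fluorescence read (ex 488, […]).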

For the next assay, the target named is T1, Cathepsin D (Cat D) (Homo sapiens, UniProt P07339).
T1 construct: made in house; host or cells: CHO cells
As to the kind of experiment: In vitro enzymatic Cathepsin D (Cat D) FRET assay. The following applies: average IC50; first procedure; read-out: CatD IC50. The format is biochemical. A digest of the protocol: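 Recombinant human Cat D expressed in CHO cells, 9 nM, pre-incubated 1 h with inhibitor in 0.05 M citrate pH 3.5, 10% DMSO, 5 mM CHAPS. Reaction started with 20 nM FRET peptide substrate, run 1 h, stopped with Tris to neutral pH; fluorescence read at ex 500/em 580 nm.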

For assay [1], the system named is Aβ40 in conditioned medium of cells stably expressing Amyloid Precursor Protein (APP). The assay is described as follows: In vitro BACE cell-based assay (HEK cell assay, Aβ40 sandwich ELISA). The following applies: Homo sapiens, HEK293; average IC50; read-out: BACE1 cell assay IC50. A digest of the protocol: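 APP-stable cells were cultured 24 h at 37 °C, then given compound as 10-point dose-response (top 100 μM or 10 μM; 0.1% DMSO final) for 24 h. Aβ40 in conditioned medium was measured by sandwich ELISA (pAb40 capture, biotinylated 6E10 detection, Eu time-resolved fluorescence). IC50 from percent inhibition versus concentration.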

The target of another assay is T2, human Bace2 protein (Homo sapiens, UniProt Q9Y5Z0).
T2 construct: V5 (C); 6-His (C)
T2 sequence (Q9Y5Z0 63-518): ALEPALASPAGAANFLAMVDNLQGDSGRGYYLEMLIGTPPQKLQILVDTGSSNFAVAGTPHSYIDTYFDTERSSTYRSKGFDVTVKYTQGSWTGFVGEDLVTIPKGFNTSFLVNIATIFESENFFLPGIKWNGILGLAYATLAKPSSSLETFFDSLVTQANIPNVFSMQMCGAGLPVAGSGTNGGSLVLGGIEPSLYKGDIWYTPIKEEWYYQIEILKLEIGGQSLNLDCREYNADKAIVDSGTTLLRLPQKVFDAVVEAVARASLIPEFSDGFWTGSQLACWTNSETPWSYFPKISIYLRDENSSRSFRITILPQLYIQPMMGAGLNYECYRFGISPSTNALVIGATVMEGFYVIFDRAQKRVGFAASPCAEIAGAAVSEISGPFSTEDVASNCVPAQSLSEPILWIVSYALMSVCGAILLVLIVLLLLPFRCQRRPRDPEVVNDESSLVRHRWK
As to the kind of experiment: In vitro enzymatic BACE2 FRET assay. The format is biochemical. The following applies: average IC50; read-out: BACE2 Enzyme assay IC50. As for the experimental part: In Vitro Enzymatic BACE2 FRET (Fluorescence Resonance Energy Transfer) Assay
Enzyme Assay Data in the Table 3
The assay buffer used in this screen is 0.05 M acetate, pH 4.2, 10% DMSO final, 100 uM genapol (which is a nonionic detergent, below its Critical Micelle Concentration). The Beta Secretase2 enzyme (human Bace2 protein with C-terminal V5 and 6-His tag; 0.2 nM) is pre-incubated for one hour with inhibitors, typically in about 1 uL of DMSO according to a serial dilution, are added thereto. This assay is effectively started by the addition of FRET substrate (50 nM) and the combination is incubated for one hour. Final assay concentration of about 0.64 nM. The FRET assay is terminated with by addition of Tris buffer, which raises the pH to neutrality, and the fluorescence is determined. The FRET substrate is a peptide with commercially available fluorophore and quencher, on opposite sides of the BACE cleavage site. Proteolytic cleavage of the FRET substrate releases quenching of fluorescence (excitation 488 nm and […]).

The subject of the next assay is Abeta 40. As to the kind of experiment: In vivo inhibition of beta-secretase: percent Abeta 40 reduction in CSF and brain. The arrangement: species or system rat. The following applies: 10 mpk, after 4 hrs. An excerpt:
In Vivo Inhibition of Beta-Secretase
Several animal models, including mouse, rat, dog, and monkey, may be used to screen for inhibition of beta-secretase activity in vivo following administration of a test compound sample. Animals used in this invention can be wild type, transgenic, or gene knockout animals. For example, the Tg2576 mouse model, prepared and conducted as described in Hsiao et al., 1996, Science 274, 99-102, and other non-transgenic or gene knockout animals are useful to analyze in vivo inhibition of Amyloid beta peptide (Abeta) production in the presence of inhibitory test compounds. Generally, 2 to 18 month old Tg2576 mice, gene knockout mice or non-transgenic animals are administered test compounds formulated in vehicles, such as cyclodextran, phosphate buffers, hydroxypropyl methylcellulose or other suitable vehicles. One to twenty-four hours following the administration of compound, animals are sacrificed, and brains as well as cerebrospinal fluid (CSF) and plasma are removed for analysis of A-beta levels and drug or test compound concentrations (Dovey et al., 2001, Journal of Neurochemistry, 76, 173-181) Beginning at time 0, animals are administered by oral gavage, or other means of delivery such as intravenous injection, an inhibitory test compound of up to 100 mg/kg in a standard, conventional formulation, such as 2% hydroxypropyl methylcellulose, 1% Tween80. A separate group of animals receive 2% hydroxypropyl methylcellulose, 1% Tween80 alone, containing no test compound, and serve as a vehicle-control group. At the end of the test period, animals are sacrificed and brain tissues, plasma or cerebrospinal fluid are collected. Brains are either homogenized in 10 volumes (w/v) of 0.2% diethylamine (DEA) in 50 mM NaCl (Best et al., 2005, Journal of Pharmacology and Experimental Therapeutics, 313, 902-908), or in 10 volumes of 0.5% TritonX-100 in Tris-buffered saline (pH at about 7.6). Homogenates are centrifuged at 355,000 g, 4° C. for 30 minutes. CSF or brain supernatants are then analyzed for the presence of A-beta peptide by specific sandwich ELISA assays based on ECL (Electrochemiluminescence) technology. For example, rat Abeta40 is measured using biotinylated-4G8 (Signet) as a capture antibody and Fab40 (an in-house antibody specific to the C-terminal of Abeta40) as a detection antibody. For example, 4 hours after administration of 30 mg/kg oral dose of the test compound in 2% hydroxypropyl methylcellulose, 1% Tween80 (pH2.2) to 200 g male Sprague Dawley rats, amyloid beta peptide levels are measured for reduction by X % and Y % in cerebrospinal fluid and brain, respectively, when compared to the levels measured in the vehicle-treated or control […].
Actual vehicles used: Oral: 2% HPMC, 1% Tween80, pH 2.2
• IV: 5% EtOH, 45% Propylene glycol in 5% Dextrose
The compounds of the invention may be shown to reduce the formation and/or deposition of amyloid beta peptide in the cerebrospinal fluid (CSF) as well as in the brain of a mouse or rat at either 3 mpk, 10 mpk or 30 mpk (mpk=mg compound per kg weight of the animal) dosing concentrations after 4 hrs.

Where [2] appears, read: Abeta 40, rat CSF, read-out: % reduction of rat CSF levels at 10 pmk.
Where [3] appears, read: Abeta 40, rat brain, read-out: % reduction of rat brain levels at 10 mpk.

Like-named read-outs stand apart in the source and are kept apart here.

The IC50 is the concentration needed to halve the response being measured.

T1 sequence (P07339 65-412, species assumed): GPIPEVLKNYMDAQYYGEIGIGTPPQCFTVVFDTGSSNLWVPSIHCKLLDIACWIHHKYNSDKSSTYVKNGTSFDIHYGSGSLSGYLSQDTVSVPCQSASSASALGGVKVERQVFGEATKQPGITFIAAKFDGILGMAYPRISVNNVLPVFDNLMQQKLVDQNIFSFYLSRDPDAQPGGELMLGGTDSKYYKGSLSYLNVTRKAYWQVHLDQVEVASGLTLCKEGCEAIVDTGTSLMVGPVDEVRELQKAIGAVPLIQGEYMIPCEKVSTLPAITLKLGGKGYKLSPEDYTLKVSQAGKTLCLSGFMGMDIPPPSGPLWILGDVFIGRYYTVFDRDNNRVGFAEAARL
BACE1, sequence (P56817 46-501, species assumed): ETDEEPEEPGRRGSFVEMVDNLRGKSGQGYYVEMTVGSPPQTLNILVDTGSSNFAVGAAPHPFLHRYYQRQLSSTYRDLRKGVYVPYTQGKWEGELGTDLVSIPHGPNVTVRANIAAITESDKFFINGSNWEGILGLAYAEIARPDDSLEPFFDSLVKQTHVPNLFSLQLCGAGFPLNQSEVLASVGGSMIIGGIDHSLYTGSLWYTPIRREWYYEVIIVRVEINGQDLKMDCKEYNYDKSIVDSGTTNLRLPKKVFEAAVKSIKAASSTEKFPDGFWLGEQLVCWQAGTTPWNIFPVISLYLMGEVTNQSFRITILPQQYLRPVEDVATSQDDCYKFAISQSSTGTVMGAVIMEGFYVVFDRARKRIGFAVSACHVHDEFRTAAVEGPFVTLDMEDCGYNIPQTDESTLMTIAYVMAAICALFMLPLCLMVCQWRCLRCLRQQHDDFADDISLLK

`Cc1cc(Cl)cnc1C(=O)Nc1ccc(F)c([C@@]2(CF)N=C(N)[C@@]3(C)CC[C@@H]2S3(=O)=O)c1` (single isomer, unassigned) [Example 118]: the IC50 was 0.017 µM at BACE1, more than 400 µM at Cathepsin D (Cat D), 0.062 µM in assay [1] and 0.002 µM on human Bace2 protein.
For the compound `CC(C)(C)C#CCOc1cnc(C(=O)Nc2ccc(F)c([C@@]3(C)N=C(N)C4(CF)CCC3S4(=O)=O)c2)cn1` (stereo in doubt) [Example 38, N-(3-((1S,2R,5R)-4-Amino-5-(fluoromethyl)-2-methyl-8,8-dioxido-8-thia-3-azabicyclo[3.2.1]oct-3-en-2-yl)-4-fluorophenyl)-5-((4,4-dimethylpent-2-yn-1-yl)oxy)pyrazine-2-carboxamide], the 50% inhibitory concentration (IC50) on BACE1 worked out at 0.004 µM; on Cathepsin D (Cat D), 437 µM; in assay [1], 0.031 µM; on human Bace2 protein, 0.011 µM.
`COc1cnc(C(=O)Nc2ccc(F)c([C@@]3(C)N=C(N)[C@@]4(CF)CC[C@@H]3S4(=O)=O)c2)c(F)c1` [Example 43, N-(3-((1S,2R,5R)-4-amino-5-(fluoromethyl)-2-methyl-8,8-dioxido-8-thia-3-azabicyclo[3.2.1]oct-3-en-2-yl)-4-fluorophenyl)-3-fluoro-5-methoxy-2-pyridinecarboxamide]: the IC50 at BACE1 was 0.009 µM; on Cathepsin D (Cat D), more than 400 µM; in assay [1], 0.007 µM; at human Bace2 protein, 0.014 µM.
`C#CC(C)(C)Oc1cnc(C(=O)Nc2ccc(F)c([C@@]3(C)N=C(N)[C@@]4(CF)CC[C@@H]3S4(=O)=O)c2)cn1` [Example 44, N-(3-((1S,2R,5R)-4-amino-5-(fluoromethyl)-2-methyl-8,8-dioxido-8-thia-3-azabicyclo[3.2.1]oct-3-en-2-yl)-4-fluorophenyl)-5-((1,1-dimethyl-2-propyn-1-yl)oxy)-2-pyrazinecarboxamide]: the concentration for half-maximal inhibition (IC50) was 0.034 µM at BACE1, more than 400 µM on Cathepsin D (Cat D), 0.153 µM in assay [1] and 0.283 µM at human Bace2 protein.
Turning to `C[C@]1(c2cc(NC(=O)c3ncc(Cl)cc3Cl)ccc2F)N=C(N)[C@@]2(CF)CC[C@@H]1S2(=O)=O` [Example 105, N-(3-((1S,2R,5R)-4-amino-5-(fluoromethyl)-2-methyl-8,8-dioxido-8-thia-3-azabicyclo[3.2.1]oct-3-en-2-yl)-4-fluorophenyl)-3,5-dichloro-2-pyridinecarboxamide], the IC50 at BACE1 was 0.002 µM; on Cathepsin D (Cat D), 926 µM; in assay [1] it was 0.004 µM. The inhibition in vivo at 10 mg/kg in the assay on Abeta 40 (setting [2]) came to 74%; with Abeta 40 (setting [3]), 71%.
As for `C[C@]1(c2cc(Nc3ncnc4cc(C(F)(F)F)cnc34)ccc2F)N=C(N)[C@@]2(CF)CC[C@@H]1S2(=O)=O` [Example 107, N-(3-((1S,2R,5R)-4-amino-5-(fluoromethyl)-2-methyl-8,8-dioxido-8-thia-3-azabicyclo[3.2.1]oct-3-en-2-yl)-4-fluorophenyl)-7-(trifluoromethyl)pyrido[3,2-d]pyrimidin-4-amine], the IC50 came out at 0.01 µM at BACE1, 185 µM at Cathepsin D (Cat D) and 0.018 µM in assay [1]. In addition, the inhibition in vivo at 10 mg/kg in the assay on Abeta 40 (setting [2]) turned out to be 53%; in the assay on Abeta 40 (setting [3]) it was 43%.
Regarding `C[C@]1(c2cc(NC(=O)c3cnc(C(F)F)cn3)ccc2F)N=C(N)[C@@]2(CF)CC[C@@H]1S2(=O)=O` [Example 109, N-(3-((1S,2R,5R)-4-amino-5-(fluoromethyl)-2-methyl-8,8-dioxido-8-thia-3-azabicyclo[3.2.1]oct-3-en-2-yl)-4-fluorophenyl)-5-(difluoromethyl)-2-pyrazinecarboxamide], the IC50 is 0.017 µM at BACE1, 1040 µM on Cathepsin D (Cat D) and 0.007 µM in assay [1]. For the same compound, the inhibition in vivo at 10 mg/kg with Abeta 40 (setting [2]) stood at 70%; in the assay on Abeta 40 (setting [3]), 57%.
As to `C[C@]1(c2cc(NC(=O)c3ccc(C(F)(F)F)cn3)ccc2F)N=C(N)[C@@]2(CF)CC[C@@H]1S2(=O)=O` [Example 110, N-(3-((1S,2R,5R)-4-amino-5-(fluoromethyl)-2-methyl-8,8-dioxido-8-thia-3-azabicyclo[3.2.1]oct-3-en-2-yl)-4-fluorophenyl)-5-(trifluoromethyl)-2-pyridinecarboxamide], the IC50 came out at 0.006 µM on BACE1, 536 µM on Cathepsin D (Cat D) and 0.005 µM in assay [1]. Moreover, the inhibition in vivo at 10 mg/kg in the assay with Abeta 40 (setting [2]) was 65%; in the assay with Abeta 40 (setting [3]), 54%.
Regarding `Cc1cnc(COc2cnc3c(Nc4ccc(F)c([C@@]5(C)N=C(N)[C@@]6(C)CC[C@@H]5S6(=O)=O)c4)nccc3n2)o1` [Example 146, N-(3-((1S,2R,5R)-4-amino-2,5-dimethyl-8,8-dioxido-8-thia-3-azabicyclo[3.2.1]oct-3-en-2-yl)-4-fluorophenyl)-2-((5-methyl-1,3-oxazol-2-yl)methoxy)pyrido[3,4-b]pyrazin-5-amine], the IC50 came out at 0.001 µM on BACE1, 417 µM on Cathepsin D (Cat D) and 0.001 µM in assay [1]. Besides, the inhibition in vivo at 10 mg/kg was 35% in the assay on Abeta 40 (setting [2]) and 13% in the assay on Abeta 40 (setting [3]).

The values are drawn from US9096615B2, “Bridged bicyclic amino thiazine dioxide compounds as inhibitors of beta-secretase and methods of use thereof” (AMGEN INC., priority 2013, dated 2015).
